Where two headings read alike, the source gives them in different places.

The source of these data is patent US6348614B1 (priority 1996, dated 2002).

One assay relates to cladosporium cucumerinum. The settings on record: cited from earlier work.
The subject of assay [1] is Pseudoperonospora cubensis. Nature of the assay: Downy mildew in cucumber (Table 8). As to conditions: 500 ppm, 7 days after inoculation.
Procedure: (§1) Cucumber plants (cv,Dlila) and melon plants (cv.Ein Dor) were raised from seeds in 0.2 liter pots in the greenhouse. At 3 weeks after sowing when had 3 true leaves they were inoculated with sporangial suspension (1000 sporangia/ml) of P.cubensis (resistant to metalaxyl) and placed in 100% relative humidity in the dark for 20 hr. They were then place in a 20° C. growth cabinet for 7 days and assessed for disease development. Percentage leaf area covered with disease symptoms was evaluated and control efficacy was calculated relative to control inoculated plants.
Assay [2] relates to Phytophthora infestans. Format: in vivo. The settings on record: Tomato, 500 ppm, 7 days after inoculation.
Assay [3] concerns Phytophthora infestans. As to conditions: applied to leaves of tomato; cited from earlier work.
For assay [4], the system named is Erysiphe graminis tritici. The experiment in a line: Powdery mildew in wheat (Table 5).
Source text: (§2) For the following experiments we have used 10-days old potted wheat plants (Triticum asetivum cultivar Atir) and barley plants (Hhordeum vulgaris cultivar Amidon).
(§3) Plants were sprayed with the test compounds and two days lated were inoculated with the powdery mildew fungal pathogens. Wheat was inoculated with Erysiphe granims tritici. Barley was inoculated with the powdery Erysiphe granims hordei.
(§4) Inoculation was done by shaking infected donor plants harboring abundant conidia over the treated plants. Untreated plants were also inoculated as controls. Inoculated plants were placed in a growth chamber at 20-22C with 1 rhr photoperioed and 50-60% RH. At 9-10 days after inoculation disease intesity was visually assessed by estimating the percentage leaf area occupied by fungal colonies.
(§5) Control efficacy of the disease achieved by the sprayed test compound was calculated relative to the amount of disease seen in the control.
Assay [5] has as its system Phytophthora infestans. Format: in vivo.
In the next assay the test system is Erysiphe graminis hordei. The experiment in a line: Powdery mildew in barley (Table 5).
In assay [6] the test system is Phytophthora infestans. Format: in vivo. The source holds these as a separate data set.
The subject of assay [7] is Pseudoperonospora cubensis. Nature of the assay: Downy mildew in melon (Table 7). As to conditions: 500 ppm, 7 days after inoculation.
Procedure: as §1
A further assay deals with Plasmopara viticola. Nature of the assay: Downy mildew in grapes (Table 9). Format: in vivo. As to conditions: 500 ppm, 10 days after inoculation. The protocol:
Two days after spraying plants were inoculated with sporangial suspension of P.viticola ([…]) onto their lower leaf surface and placed in 100% relative humidity for 20 hr. The plants were then placed in a growth cabinets 20° C. for 10 days. Disease development was assessed according to the abaxial leaf surfaces area covered with fungal sporulation.

The test system of assay [8] is Erysiphe graminis tritici. Nature of the assay: Powdery mildew in wheat, additional examples (Table 6). Format: in vivo. As to conditions: 500 ppm, 7 days after inoculation. The method, then:
Wheat plants (cv.Shafir) were raised from seed in the greenhouse, 30 plants per 0.2 liter pot. When the first leaf was fully developed plants were sprayed with the test solutions and placed in a 20° C. growth cabinet. Two days after spraying plants were dusted with conidia of E. graminis tritict so that about 100 spores were settled on 1 cm^2 of leaf area (both surfaces). […] Control efficacy was calculated relative to number of colonies developed on the control-inoculated untreated plants.

The next assay relates to Venturia inaequalis. As to conditions: 0.03 M; cited from earlier work.
[9] abbreviates: Wheat 7.8.96, dose 500 (unit not given).
Setting [10] is: Wheat 7.8.96, dose 2000 (unit not given).
Setting [11] is: Barley 17.9.96, dose 500 (unit not given).
Setting [12] is: Barley 17.9.96, dose 2000 (unit not given).

Source text for Erysiphe graminis hordei: as §2, §3, §4, §5

Take `N[C@H](CO)C(=O)O` [D-serine]: the “behaviour as chemotherapeutant against the fungus on cucumber” value (from here on “behaviour as chemotherapeutant”) with cladosporium cucumerinum is listed as “behaved as chemothrerpeutants”.
For `Cc1ccc(C(=O)NC(C)CC(=O)OC2CCCCC2)cc1` (centres unmarked) [compound 37, D,L N-4-methylbenzoyl-3-aminobutyric acid cyclohexyl ester], the “Control efficacy (%) 7d” value was found to be 75% in [1] and 78% in the assay on Phytophthora infestans [2].
As for `CCCCC(C)OC(=O)CC(C)NC(=O)c1ccccc1NC` (centres unmarked) [compound 52, D,L N-2-methylaminobenzoyl-3-aminobutyric acid 1-methylpentyl ester], the figures for the “Control efficacy (%) 7d” value (in [1]; with Phytophthora infestans [2]) were 97% and 75%, respectively.
For `CC(N)CC(=O)O` (racemic) [DL-β-aminobutyric acid], the “protection of tomato leaves” value in the assay on Phytophthora infestans [3] is recorded as “protected those leaves”.
Take “N-β-methyl benzoyl-3 aminobutyric acid-sec. butyl ester [Example 4]”: the “Control Efficacy %” value in assay [4] (setting [9]) was 96%; in assay [4] (setting [10]) it was 96%; with Phytophthora infestans [5] (Potato, 14.8.96, 2000 ppm) it was 77%; with Phytophthora infestans [5] (Potato, 17.7.096, 500 ppm), 56%; with Phytophthora infestans [5] (Potato, 17.7.096, 2000 ppm) it was 75%; in the assay on Phytophthora infestans [5] (Potato, 26.7.96, 500 ppm), 23%. For the same compound, the “Control Efficacy %” value in the assay on Phytophthora infestans [5] (Potato, 26.7.96, 2000 ppm) is recorded as 42%; in the assay on Erysiphe graminis hordei (setting [11]) it was 87%; in the assay with Erysiphe graminis hordei (setting [12]), 95%; in the assay on Phytophthora infestans [6] (Tomato, 12.7.96, 2000 ppm), 85%; in the assay on Phytophthora infestans [6] (Tomato, 14.8/96, 2000 ppm) it was 90%.
Turning to “D,L-N-β-methyl benzoyl-3-aminobutyric acid n-octyl ester [Example 3]”, the “Control Efficacy %” value in the assay with Phytophthora infestans [5] (Potato, 14.8.96, 2000 ppm) is 88%; in the assay with Phytophthora infestans [5] (Potato, 17.7.096, 500 ppm), 70%; in the assay with Phytophthora infestans [5] (Potato, 17.7.096, 2000 ppm), 81%; in the assay with Phytophthora infestans [5] (Potato, 26.7.96, 500 ppm) it was 85%; in the assay on Phytophthora infestans [5] (Potato, 26.7.96, 2000 ppm) it was 92%; in the assay on Phytophthora infestans [6] (Tomato, 12.7.96, 2000 ppm) it was 70%. Besides, in the assay on Phytophthora infestans [6] (Tomato, 14.8/96, 2000 ppm), the “Control Efficacy %” value is listed as 93%.
Consider `CCCCCCCOC(=O)CC(C)NC(=O)c1ccc(C(C)(C)C)cc1` (centres unmarked) [compound 15, D,L N-4-tertbutylbenzoyl-3-aminobutyric acid heptyl ester], for which the “Control efficacy % 7 days” value in assay [7] is 97%. Moreover, the “Control efficacy % 10d” value in the assay with Plasmopara viticola is given as 97%. Besides, in [8], the “Control efficacy (%) 7d” value is 74%.
Turning to `CC(CC(=O)Nc1ccccc1)NS(=O)(=O)c1ccccc1` (racemic) [Example 2, D,L-N-benzensulfonyl-3-aminobutyranilide], the “Control Efficacy %” value with Phytophthora infestans [5] (Potato, 14.8.96, 2000 ppm) is 74%; with Phytophthora infestans [5] (Potato, 17.7.096, 500 ppm), 45%; in the assay with Phytophthora infestans [5] (Potato, 17.7.096, 2000 ppm), 81%; in the assay with Phytophthora infestans [5] (Potato, 26.7.96, 500 ppm) it was 42%; in the assay with Phytophthora infestans [5] (Potato, 26.7.96, 2000 ppm), 68%; in the assay on Phytophthora infestans [6] (Tomato, 12.7.96, 500 ppm) it was 85%. The “Control Efficacy %” value in the assay on Phytophthora infestans [6] (Tomato, 12.7.96, 2000 ppm) came out at 85%; with Phytophthora infestans [6] (Tomato, 14.8/96, 2000 ppm), 83%.
For `C[C@@H](N)C(=O)O` [D-alaninie], the “reduction of scab in apple” value with Venturia inaequalis was “reduce scab”.
As to `C[C@@H](O)[C@H](N)C(=O)O` (racemic) [DL-threonine], the “behaviour as chemotherapeutant” value with cladosporium cucumerinum is on record as “behaved as chemothrerpeutants”.
Consider `NC(CO)C(=O)O` (racemic) [DL-serine], for which, in the assay with cladosporium cucumerinum, the “behaviour as chemotherapeutant” value is “behaved as chemothrerpeutants”.
On to `CCCOC(=O)CC(C)NS(=O)(=O)c1ccc(Cl)cc1` (centres unmarked) [compound 35, D,L N-4-chlorobenzenesulfonyl-3-aminobutyric acid propyl ester], for which the results for the “Control efficacy (%) 7d” value (in [8]; in assay [1]; in the assay with Phytophthora infestans [2]) were 81%, 77% and 81%, respectively.
For the compound `CC(C)CC(N)C(=O)O` (stereo not drawn) [DL leucine], the “reduction of scab in apple” value in the assay on Venturia inaequalis is “reduce scab”.
Regarding `CCC(N)C(=O)O` (racemic) [DL-α-aminobutyric acid], the “reduction of scab in apple” value with Venturia inaequalis was “reduce scab”.
With `CC(CC(=O)OCCCl)NC(=O)c1ccc(Cl)cc1` (racemic) [Example 6, D,L-N-4-chlorobenzoyl-3-aminobutyric acid 2-chloro-ethyl ester], the “Control Efficacy %” value with Phytophthora infestans [5] (Potato, 14.8.96, 2000 ppm) is given as 88%; in the assay with Phytophthora infestans [5] (Potato, 17.7.096, 500 ppm), 75%; in the assay on Phytophthora infestans [5] (Potato, 17.7.096, 2000 ppm) it was 50%; in the assay on Erysiphe graminis hordei (setting [11]) it was 62%; in the assay with Erysiphe graminis hordei (setting [12]), 75%; with Phytophthora infestans [6] (Tomato, 12.7.96, 500 ppm), 76%. The “Control Efficacy %” value with Phytophthora infestans [6] (Tomato, 12.7.96, 2000 ppm) was found to be 79%; in the assay on Phytophthora infestans [6] (Tomato, 14.8/96, 2000 ppm), 67%.
For `CCCCCCCOC(=O)CC(C)NS(=O)(=O)c1ccc(Cl)cc1` (centres unmarked) [compound 40, D,L N-4-chlorobenzenesulfonyl-3-aminobutyric acid heptyl ester], in assay [1], the “Control efficacy (%) 7d” value was 82%.
With `CC(CC(=O)NCc1ccccc1)NS(=O)(=O)c1ccccc1` (racemic) [Example 1, D,L-N-benzenesulfonyl-3-amino N-benzyl butyramide], the “Control Efficacy %” value in the assay with Phytophthora infestans [5] (Potato, 14.8.96, 2000 ppm) is recorded as 72%; in the assay on Phytophthora infestans [5] (Potato, 17.7.096, 500 ppm) it was 57%; in the assay on Phytophthora infestans [5] (Potato, 17.7.096, 2000 ppm) it was 77%; with Phytophthora infestans [5] (Potato, 26.7.96, 500 ppm) it was 49%; in the assay with Phytophthora infestans [5] (Potato, 26.7.96, 2000 ppm), 79%; with Erysiphe graminis hordei (setting [11]), 25%. Further, the “Control Efficacy %” value came out at 75% with Erysiphe graminis hordei (setting [12]); 82% in the assay on Phytophthora infestans [6] (Tomato, 12.7.96, 500 ppm); 97% in the assay on Phytophthora infestans [6] (Tomato, 12.7.96, 2000 ppm); 90% in the assay with Phytophthora infestans [6] (Tomato, 14.8/96, 2000 ppm).
Turning to `CC(CC(=O)OC1CCCCC1)NC(=O)c1ccccc1` (centres unmarked) [compound 38, D,L N-benzoyl-3-aminobutyric acid cyclohexyl ester], the “Control efficacy (%) 7d” value came out at 100% in [8], 80% in assay [1] and 78% in the assay on Phytophthora infestans [2].
As to `CCCCCCCCOC(=O)CC(C)NC(=O)c1ccc(Cl)c(Cl)c1` (racemic) [Example 5, D,L-N-3,4-dichlorobenzoyl-3-aminobutyric acid n-octyl ester], the “Control Efficacy %” value in assay [4] (setting [9]) came out at 76%; in assay [4] (setting [10]), 92%; in the assay on Erysiphe graminis hordei (setting [11]) it was 82%; in the assay on Erysiphe graminis hordei (setting [12]), 85%.
Turning to `Cc1ccc(C(=O)NC(C)CC(=O)OCCC(Cl)(Cl)Cl)cc1` (centres unmarked) [compound 36, D,L N-4-methylbenzoyl-3-aminobutyric acid 2-(trichloromethyl)ethyl ester], the “Control efficacy (%) 7d” value is 82% in assay [1] and 81% with Phytophthora infestans [2].
`CC(CC(=O)OC1CCCCC1)NS(=O)(=O)c1ccccc1` (centres unmarked) [compound 39, D,L N-benzenesulfonyl-3-aminobutyric acid cyclohexyl ester]: the “Control efficacy (%) 7d” value in [1] was found to be 70%; in the assay with Phytophthora infestans [2] it was 75%.
In the case of `CC(C)C[C@@H](N)C(=O)O` [D-leucine, D-and DL leucine], in the assay on Venturia inaequalis, the “reduction of scab in apple” value is “reduce scab”.
